Data taken from the NIST ThermoML archive (doi:10.1016/j.jct.2017.05.001).
Numbers after ± are expanded uncertainties.

Experiment: wn = mass fraction of the nth substance listed
Conditions: Liquid; for viscosity: Falling or rolling sphere viscometry; for mass density: Vibrating tube method
[1] = 373.15 K, 30000 kPa, w1 = 0.0993
[2] = 373.15 K, 30000 kPa, w1 = 0.3002
[3] = 373.15 K, 30000 kPa, w1 = 0.3997
[4] = 373.15 K, 40000 kPa, w1 = 0.0993
[5] = 373.15 K, 40000 kPa, w1 = 0.3002
[6] = 373.15 K, 40000 kPa, w1 = 0.3997
[7] = 373.15 K, 60000 kPa, w1 = 0.0993
[8] = 373.15 K, 60000 kPa, w1 = 0.3002
[9] = 373.15 K, 60000 kPa, w1 = 0.3997
[10] = 373.15 K, 80000 kPa, w1 = 0.0993
[11] = 373.15 K, 80000 kPa, w1 = 0.3002
[12] = 373.15 K, 80000 kPa, w1 = 0.3997
[13] = 373.15 K, 100000 kPa, w1 = 0.0993
[14] = 373.15 K, 100000 kPa, w1 = 0.3002
[15] = 373.15 K, 100000 kPa, w1 = 0.3997
[16] = 393.15 K, 5000 kPa, w1 = 0.0993
[17] = 393.15 K, 5000 kPa, w1 = 0.3002
[18] = 393.15 K, 5000 kPa, w1 = 0.3997

Q: What does the source list for `OCCNCCO` [diethanolamine] + O?
A: viscosity [1]: 0.3689 ± 0.012 mPa·s; viscosity (373.15 K, 30000 kPa, w1 = 0.2): 0.4761 ± 0.016 mPa·s; viscosity [2]: 0.6417 ± 0.021 mPa·s; viscosity [3]: 0.9 ± 0.03 mPa·s; mass density [1]: 981.4 ± 0.7 kg/m3; mass density (373.15 K, 30000 kPa, w1 = 0.2): 991.5 ± 0.7 kg/m3; mass density [2]: 1001.6 ± 0.7 kg/m3; mass density [3]: 1012 ± 0.7 kg/m3; viscosity [4]: 0.3724 ± 0.012 mPa·s; viscosity (373.15 K, 40000 kPa, w1 = 0.2): 0.482 ± 0.016 mPa·s; viscosity [5]: 0.6515 ± 0.021 mPa·s; viscosity [6]: 0.9123 ± 0.03 mPa·s; mass density [4]: 985.7 ± 0.7 kg/m3; mass density (373.15 K, 40000 kPa, w1 = 0.2): 995.6 ± 0.7 kg/m3; mass density [5]: 1005.7 ± 0.7 kg/m3; mass density [6]: 1016 ± 0.7 kg/m3; mass density (373.15 K, 50000 kPa, w1 = 0.0993): 989.7 ± 0.7 kg/m3; mass density (373.15 K, 50000 kPa, w1 = 0.2): 999.5 ± 0.7 kg/m3; mass density (373.15 K, 50000 kPa, w1 = 0.3002): 1009.5 ± 0.7 kg/m3; mass density (373.15 K, 50000 kPa, w1 = 0.3997): 1019.8 ± 0.7 kg/m3; viscosity [7]: 0.3807 ± 0.013 mPa·s; viscosity (373.15 K, 60000 kPa, w1 = 0.2): 0.492 ± 0.016 mPa·s; viscosity [8]: 0.6676 ± 0.022 mPa·s; viscosity [9]: 0.9445 ± 0.031 mPa·s; mass density [7]: 993.6 ± 0.7 kg/m3; mass density (373.15 K, 60000 kPa, w1 = 0.2): 1003.5 ± 0.7 kg/m3; mass density [8]: 1013.4 ± 0.7 kg/m3; mass density [9]: 1023.6 ± 0.7 kg/m3; mass density (373.15 K, 70000 kPa, w1 = 0.0993): 997.5 ± 0.7 kg/m3; mass density (373.15 K, 70000 kPa, w1 = 0.2): 1007.3 ± 0.7 kg/m3; mass density (373.15 K, 70000 kPa, w1 = 0.3002): 1017.2 ± 0.7 kg/m3; mass density (373.15 K, 70000 kPa, w1 = 0.3997): 1027.3 ± 0.7 kg/m3; viscosity [10]: 0.3871 ± 0.013 mPa·s; viscosity (373.15 K, 80000 kPa, w1 = 0.2): 0.5046 ± 0.017 mPa·s; viscosity [11]: 0.6851 ± 0.023 mPa·s; viscosity [12]: 0.9763 ± 0.032 mPa·s; mass density [10]: 1001.4 ± 0.7 kg/m3; mass density (373.15 K, 80000 kPa, w1 = 0.2): 1011.1 ± 0.7 kg/m3; mass density [11]: 1020.9 ± 0.7 kg/m3; mass density [12]: 1031 ± 0.7 kg/m3; mass density (373.15 K, 90000 kPa, w1 = 0.0993): 1005.1 ± 0.7 kg/m3; mass density (373.15 K, 90000 kPa, w1 = 0.2): 1014.7 ± 0.7 kg/m3; mass density (373.15 K, 90000 kPa, w1 = 0.3002): 1024.4 ± 0.7 kg/m3; mass density (373.15 K, 90000 kPa, w1 = 0.3997): 1034.5 ± 0.7 kg/m3; viscosity [13]: 0.3943 ± 0.013 mPa·s; viscosity (373.15 K, 100000 kPa, w1 = 0.2): 0.5153 ± 0.017 mPa·s; viscosity [14]: 0.7019 ± 0.023 mPa·s; viscosity [15]: 1.003 ± 0.033 mPa·s; mass density [13]: 1008.8 ± 0.7 kg/m3; mass density (373.15 K, 100000 kPa, w1 = 0.2): 1018.3 ± 0.7 kg/m3; mass density [14]: 1028 ± 0.7 kg/m3; mass density [15]: 1038 ± 0.7 kg/m3; mass density (373.15 K, 110000 kPa, w1 = 0.0993): 1012.4 ± 0.7 kg/m3; mass density (373.15 K, 110000 kPa, w1 = 0.2): 1021.9 ± 0.7 kg/m3; mass density (373.15 K, 110000 kPa, w1 = 0.3002): 1031.5 ± 0.7 kg/m3; mass density (373.15 K, 110000 kPa, w1 = 0.3997): 1041.4 ± 0.7 kg/m3; mass density (373.15 K, 120000 kPa, w1 = 0.0993): 1015.9 ± 0.7 kg/m3; mass density (373.15 K, 120000 kPa, w1 = 0.2): 1025.3 ± 0.7 kg/m3; mass density (373.15 K, 120000 kPa, w1 = 0.3002): 1034.9 ± 0.7 kg/m3; mass density (373.15 K, 120000 kPa, w1 = 0.3997): 1044.8 ± 0.8 kg/m3; mass density (373.15 K, 130000 kPa, w1 = 0.0993): 1019.4 ± 0.7 kg/m3; mass density (373.15 K, 130000 kPa, w1 = 0.2): 1028.7 ± 0.7 kg/m3; mass density (373.15 K, 130000 kPa, w1 = 0.3002): 1038.2 ± 0.7 kg/m3; mass density (373.15 K, 130000 kPa, w1 = 0.3997): 1048.1 ± 0.8 kg/m3; mass density (373.15 K, 140000 kPa, w1 = 0.0993): 1022.7 ± 0.7 kg/m3; mass density (373.15 K, 140000 kPa, w1 = 0.2): 1032 ± 0.7 kg/m3; mass density (373.15 K, 140000 kPa, w1 = 0.3002): 1041.5 ± 0.8 kg/m3; mass density (373.15 K, 140000 kPa, w1 = 0.3997): 1051.3 ± 0.8 kg/m3; mass density (393.15 K, 100 kPa, w1 = 0.0993): 952.6 ± 0.7 kg/m3; mass density (393.15 K, 100 kPa, w1 = 0.2): 962.8 ± 0.7 kg/m3; mass density (393.15 K, 100 kPa, w1 = 0.3002): 972.9 ± 0.7 kg/m3; mass density (393.15 K, 100 kPa, w1 = 0.3997): 983.2 ± 0.7 kg/m3; mass density (393.15 K, 500 kPa, w1 = 0.0993): 952.9 ± 0.7 kg/m3; mass density (393.15 K, 500 kPa, w1 = 0.2): 963.2 ± 0.7 kg/m3; mass density (393.15 K, 500 kPa, w1 = 0.3002): 973.2 ± 0.7 kg/m3; mass density (393.15 K, 500 kPa, w1 = 0.3997): 983.5 ± 0.7 kg/m3; mass density (393.15 K, 1000 kPa, w1 = 0.0993): 953.1 ± 0.7 kg/m3; mass density (393.15 K, 1000 kPa, w1 = 0.2): 963.3 ± 0.7 kg/m3; mass density (393.15 K, 1000 kPa, w1 = 0.3002): 973.4 ± 0.7 kg/m3; mass density (393.15 K, 1000 kPa, w1 = 0.3997): 983.7 ± 0.7 kg/m3; mass density (393.15 K, 2000 kPa, w1 = 0.0993): 953.6 ± 0.7 kg/m3; mass density (393.15 K, 2000 kPa, w1 = 0.2): 963.8 ± 0.7 kg/m3; mass density (393.15 K, 2000 kPa, w1 = 0.3002): 973.9 ± 0.7 kg/m3; mass density (393.15 K, 2000 kPa, w1 = 0.3997): 984.2 ± 0.7 kg/m3; viscosity [16]: 0.2926 ± 0.0096 mPa·s; viscosity (393.15 K, 5000 kPa, w1 = 0.2): 0.3644 ± 0.012 mPa·s; viscosity [17]: 0.4675 ± 0.015 mPa·s; viscosity [18]: 0.6194 ± 0.02 mPa·s; mass density [16]: 955.1 ± 0.7 kg/m3; mass density (393.15 K, 5000 kPa, w1 = 0.2): 965.2 ± 0.7 kg/m3; mass density [17]: 975.3 ± 0.7 kg/m3; mass density [18]: 985.6 ± 0.7 kg/m3; viscosity (393.15 K, 10000 kPa, w1 = 0.0993): 0.2943 ± 0.0097 mPa·s; viscosity (393.15 K, 10000 kPa, w1 = 0.2): 0.3676 ± 0.012 mPa·s
